From EP4516309A1, “CRHR1 AGONISTS FOR USE IN THE TREATMENT OF SOCIAL ANXIETY DISORDERS” (Consejo Superior de Investigaciones Cientificas, priority 2023, dated 2025)

How the values were obtained:
[1] = target: T1, excitatory DREADD (Homo sapiens, UniProt P20309, A239G/Y149C); test: c-fos / mCherry overlap in ILA after familiar animal presentation, excitatory DREADD; type: in vivo, CRH-Cre mice; settings: CNO i.p. 30 min before familiar animal presentation; vs. saline
T1 construct: host or cells: ILA CRH+ neurons of CRH-Cre mice, Cre-dependent AAV2/5 transduction in vivo
T1 sequence (P20309 whole entry Y149C/A239G): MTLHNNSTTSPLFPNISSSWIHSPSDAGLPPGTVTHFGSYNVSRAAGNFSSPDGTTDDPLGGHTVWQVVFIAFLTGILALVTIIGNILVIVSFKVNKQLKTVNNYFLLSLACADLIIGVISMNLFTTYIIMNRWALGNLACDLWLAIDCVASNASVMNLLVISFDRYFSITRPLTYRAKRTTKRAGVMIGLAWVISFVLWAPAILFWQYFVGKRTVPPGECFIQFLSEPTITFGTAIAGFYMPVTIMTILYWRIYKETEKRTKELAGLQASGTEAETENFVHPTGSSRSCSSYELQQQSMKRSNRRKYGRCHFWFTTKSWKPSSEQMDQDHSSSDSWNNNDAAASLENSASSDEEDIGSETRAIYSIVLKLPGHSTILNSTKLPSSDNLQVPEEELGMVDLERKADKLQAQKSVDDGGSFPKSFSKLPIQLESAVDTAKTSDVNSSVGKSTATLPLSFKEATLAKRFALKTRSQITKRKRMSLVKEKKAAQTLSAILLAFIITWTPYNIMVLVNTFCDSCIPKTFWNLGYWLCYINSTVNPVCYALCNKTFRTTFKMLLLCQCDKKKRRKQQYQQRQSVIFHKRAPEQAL
Procedure: Mice were anesthetized using isoflurane then perfused in the heart with 10 mL saline and their brains were quickly extracted and incubated in 4% PFA overnight. After 1 h washing in PBS, 60 µm slices were prepared using a Leica VT1000S vibratome (Leica Biosystems). Unless indicated otherwise, slices were permeabilized for 2h in PBS with 0.5% Triton-X100 (T9284, Sigma-Aldrich) in PBS before being incubated overnight at 4°C with primary antibodies diluted in PBS with 0.5% Triton-X in PBS. The slices were washed in PBS for 1 h then incubated overnight at 4°C with secondary antibodies from Thermo-Fisher Scientific at a concentration of 1:500 diluted in PBS with 0.1% Triton-X. Hoechst counterstain was applied (Hoechst 33342 at 1:1000 for 30 min in PBS at RT) prior to mounting the slice using fluoromount (Sigma-Aldrich). Images were acquired using inverted confocal microscopes (Ism 900, Zeiss and SPII, Leica) or an epifluorescent microscope (Thunder, Leica). For post-hoc immunocytochemistry after patch-clamp recordings, slices were fixed for 1 h in PBS with 4% PFA and streptavidin was applied during secondary incubation. • For mRuby and GFP labelling, primary incubation was performed overnight at 4°C with rabbit anti-RFP (1:500, Rockland Antibody, #600-401-379) and chicken anti-GFP (1:1000, Aves, #GFP-1020) antibodies. […]

[2] = target: T1, excitatory DREADD; test: Repetitive social presentation test with chemogenetic activation of ILA CRH cells; type: in vivo, CRH-Cre mice; settings: CNO; excitatory DREADD in ILA CRH neurons
Procedure: Injection coordinates were the following (in mm from Bregma): AP: 1.65, ML: ±0.1, DV: -2.6. Injections were done bilaterally with 100 nl injected per site. AAV2/DJ hSyn.FLEX.mGFP.2A.Synatophysin-mRuby (Addgene #71760 prepared by the Stanford University vector core #1930), AAV2/8 hSyn.DIO.hM4D(Gi)-mCherry (Addgene #44362-AAV8), AAV2/8 hSyn.DIO.mCherry (Addgene #50459-AAV8), AAV2/5-hSyn-DIO-hM3D(Gq)-mCherry (Addgene, #44361-AAV5), AAV2/5 hsyn.DIO.mCherry (Addgene #50459-AAV5), AAV2/1 syn.FLEX.GCaMP6f.WPRE.SV40 (Addgene #100833-AAV1), AAV2/9 CMV-DIO-(mCherry-U6)-shRNA(anti-Crh) (VTA brain), AAV2/9 CMV-DIO-(mCherry-U6)-shRNA(scrambled) (VTA brain), AAV2/9 hSyn.FLEX.dsRed-shRNA(Vgat) (Addgene #67845), AAV 2/9 hSyn-flex-dsRed-shRNA(scrambled) (Addgene #71383), AAV2/2 CAG.FLEX.ArchT-tdTomato (Addgene #28305 prepared by the University of North Carolina vector core) and AAV2/2 CAG.FLEX.tdTomato (Addgene #28306 prepared by the University of North Carolina vector core) were injected into the ILA of CRH-Cre mice. Viruses expressed for a minimum of 2 weeks.
Repetitive social presentation test. […] Films were scored offline for social interaction by a trained observer blind to the experimental condition. Sniffing of any part of the body, allo-grooming and close following counted as social interaction. […]

## C[N+]1([O-])CCN(C2=Nc3cc(Cl)ccc3Nc3ccccc32)CC1 [CNO, clozapine N-oxide]
[1]
  c-fos/mCherry+ overlap in ILA: increased c-fos/mCherry+ overlap
[2]
  decrease in social interaction: slightly facilitated
